# Assay results published in patent publication US12312631B1, “High-throughput multiplexed sensitivity and resistance assay” (SAGEMEDIC CORPORATION, priority 2022, dated 2025).
# Like-named read-outs stand apart in the source and are kept apart here.
# Columns and labels:
# A549 cells [1] = experiment: ATP release into extracellular fluid or after lysis buffer, with or without Triton X, after PFA; type: cell-based
# Method: In a factorial design, the cells were a) treated with 0%, 0.2%, or 1% PFA, and b) treated with or without 0.5% Triton X. ATP was then measured either from the extracellular fluids or within the wells after the use of a cell lysis buffer.
# One out of 3 wells were incubated with 0%, 0.2%, and 1% PFA for 15 minutes and PFA was washed out 3 times with PBS. Half of the wells were then treated with 0.5% Triton X for 10 minutes and the other half received no Triton. The extracellular fluid from half of the 0.5% Triton X treated wells was then transferred to another well-plate and ATP was measured using a luciferin/luciferase complex. The other half of the 0.5% Triton X treated wells were first treated with a lysis buffer and then ATP was measured using the same luciferin/luciferase complex.
# [2] = 2% to 4% formalin
# luciferase = tested on: luciferase
# Method: We assessed four groups of A549 cells: with 0.0625% PFA, 0.25% PFA, 1% PFA, and 4% PFA, each of them at 0%, 1%, 5%, or 25% of human serum. For each group, A549 cells were plated in 96 well plates with 4 replicates of 1,000 cells at 100 μl per well. The cell culture medium was DMEM/F12 plus 10% human serum. Luciferase-catalyzed ATP luminescence was then measured using the CellTiter-Glo assay per manufacturer's instructions.
# A combination of PFA and serum mixture was then created using a 4×4 factorial design of 0.0625%, 0.25%, 1%, or 4% of PFA, and 0%, 1%, 5%, or 25% of human serum, and incubated for 15 min at room temperature. The mixture was then added to the wells and a second round of RLU measurements were taken within 5 min.
# A549 cells [3] = tested on: A549 cells
# Method: Furthermore, since serum contains proteins, we wanted to know whether incubating and washing with serum could neutralize any potentially residual effect of PFA on ATP measurements. Thus, we created a 4×4 factorial design to expose the cells with 0.0625%, 0.25%, 1%, or 4% of PFA and 0%, 1%, 5%, or 25% of human serum.
# For this experiment, A549 cells were plated in 96-well plates with 4 replicates of in 100 μl per well (cell culture medium was DMEM/F12 plus 10% human serum). Cells were fixed with the PFA concentrations for 5 min and washed 3× with phosphate-buffered saline (PBS).
# The cells were then incubated at various serum concentrations for 10 min and then washed twice with PBS. Finally, luciferase catalyzed ATP luminescence was measured as per manufacturer's instructions.
# A549 cells [4] = conditions: 2% or 4% PFA for 15 min, thoroughly washed out
# Method: An experiment was therefore conducted to see what if any effect PFA had on cellular ATP content and whether it would still be possible to detect ATP in fixed tissue/cells. Four groups of cells were tested: • Group 1 was not pretreated with PFA (control). • Group 2 was treated with 2% PFA. • Group 3 was pretreated with 2% PFA that was then washed out. • Group 4 was pretreated with 4% PFA that was then washed out.
# The experiment was conducted as follows. For each group, A549 cells (Catalog No. CCL-185, ATCC, Manassas, VA, USA) were plated in 96-well plates (200 μl/well) with 8 replicates of 1,000 cells in 50 μl cell culture medium per well (DMEM/F12 plus 10% human serum). Cells in group 1, the control group, was not treated with PFA. Cells in groups 2, 3, and 4 were incubated for 15 min. with 2%, 2%, and 4% PFA, respectively. PFA remained in the wells of group 2 and PFA was removed from groups 3 and 4 by washing 3 times with 100 μl Cell culture medium. Luciferase catalyzed ATP luminescence was measured as per CellTiter-Glo 3D manufacturer's instructions.
# Luminescence was measured with a BioTek Synergy LX plate reader (Agilent, Santa Clara, CA, U.S.A.) and calculations were performed to quantify, measure, and/or correlate ATP level with cell viability.
# We also used relative luminescence unit (RLU) as arbitrary units to calculate ATP level to cell viability.
compound,measurement,setting,value
Triton X,ATP release,"A549 cells [1]; 0.5% Triton X alone for 10 minutes, no PFA, RLUs similar to lysis buffer",complete ATP release
C=O [formalin],ATP still detectable in lysed cells after fixation,[2],almost half
paraformaldehyde [PFA],luciferase activity blocked,luciferase; 1% PFA,about 90%
same,luciferase activity blocked,luciferase; 4% PFA,almost completely blocked
same,change of RLUs,luciferase; up to 0.25% PFA added to the CellTiter-Glo solution,did not change the RLUs
same,RLU (ATP luminescence) Avg.,"A549 cells [3]; PFA 0.06%, average over serum levels","47,729 RLU"
same,RLU (ATP luminescence),"A549 cells [3]; PFA 0.06%, serum 0%","39,815 RLU"
same,RLU (ATP luminescence),"A549 cells [3]; PFA 0.06%, serum 1%","46,022 RLU"
same,RLU (ATP luminescence),"A549 cells [3]; PFA 0.06%, serum 5%","51,674 RLU"
same,RLU (ATP luminescence),"A549 cells [3]; PFA 0.06%, serum 25%","53,405 RLU"
same,RLU (ATP luminescence) Avg.,"A549 cells [3]; PFA 0.25%, average over serum levels","58,470 RLU"
same,RLU (ATP luminescence),"A549 cells [3]; PFA 0.25%, serum 0%","44,249 RLU"
same,RLU (ATP luminescence),"A549 cells [3]; PFA 0.25%, serum 1%","61,899 RLU"
same,RLU (ATP luminescence),"A549 cells [3]; PFA 0.25%, serum 5%","59,651 RLU"
same,RLU (ATP luminescence),"A549 cells [3]; PFA 0.25%, serum 25%","68,082 RLU"
same,RLU (ATP luminescence) Avg.,"A549 cells [3]; PFA 1%, average over serum levels","40,598 RLU"
same,RLU (ATP luminescence),"A549 cells [3]; PFA 1%, serum 0%","38,892 RLU"
same,RLU (ATP luminescence),"A549 cells [3]; PFA 1%, serum 1%","45,576 RLU"
same,RLU (ATP luminescence),"A549 cells [3]; PFA 1%, serum 5%","34,194 RLU"
same,RLU (ATP luminescence),"A549 cells [3]; PFA 1%, serum 25%","43,731 RLU"
same,RLU (ATP luminescence) Avg.,"A549 cells [3]; PFA 4%, average over serum levels","26,464 RLU"
same,RLU (ATP luminescence),"A549 cells [3]; PFA 4%, serum 0%","22,097 RLU"
same,RLU (ATP luminescence),"A549 cells [3]; PFA 4%, serum 1%","34,860 RLU"
same,RLU (ATP luminescence),"A549 cells [3]; PFA 4%, serum 5%","23,912 RLU"
same,RLU (ATP luminescence),"A549 cells [3]; PFA 4%, serum 25%","24,987 RLU"
same,RLU (ATP luminescence) Avg.,"A549 cells [3]; average over PFA concentrations, serum 0%","36,263 RLU"
same,RLU (ATP luminescence) Avg.,"A549 cells [3]; average over PFA concentrations, serum 1%","47,089 RLU"
same,RLU (ATP luminescence) Avg.,"A549 cells [3]; average over PFA concentrations, serum 5%","42,358 RLU"
same,RLU (ATP luminescence) Avg.,"A549 cells [3]; average over PFA concentrations, serum 25%","47,551 RLU"
same,RLU (ATP luminescence) Avg.,A549 cells [3]; average over all PFA concentrations and serum levels,"43,315 RLU"
same,ATP released into the extracellular fluid,"A549 cells [1]; 0.2% and 1% PFA, then 0.5% Triton X, same effect after cell lysis buffer",inhibited in a dose-dependent manner
same,ATP leakage into the extracellular fluid,"A549 cells [1]; 0.2% or 1% PFA, without Triton X",neither 0.2% nor 1% PFA lead to some ATP leakage
same,ATP luminescence compared with the control group,A549 cells [4],less than half of the control group
